Assay results published in US10195226B2, “Medicinal carbohydrates for treatment of respiratory conditions” (Australian Biomedical Company Pty Ltd., priority 2009, dated 2019).
Where two headings read alike, the source gives them in different places.

Tests used:
Balb-C mice [1] = assay: Tolerance study on Balb-C mice; format: in vivo
Excerpt: (§1) Compounds of Formula (1) and/or (2) have been tested for safety by the applicants. For example, Compounds (1) and (2) were used in a tolerance and subchronic toxicity study on Balb-C mice (AEC Approval Code: BAM/B/2005/16).

Balb-C mice [2] = assay: Subchronic toxicity study on Balb-C mice; format: in vivo
Excerpt: as §1

male Hartley guinea pigs = assay: Guinea pig cough model (neuraminidase aerosol, citric acid challenge); format: in vivo; conditions: for Restoration of respiratory tract damages caused by neuraminidase: guinea pig cough model, oral dose of 500 mg/kg/day×3 days, result in words, 500 mg/kg/day
Method: A guinea pig cough model was also established by the applicants. Compounds (1) and (2) were tested in this model. […] These in vivo results are in line with the in vitro data. Thus, both the efficacy and safety data support compounds of Formula (1) and/or (2) and particularly compounds (1) and (2) may be useful for medicinal applications.
Male guinea pigs were housed in pens and have access to water and food ad libitum. This study was approved by Bio21 Institute Animal Ethics Committee.
Twenty four Conscious male Hartley guinea pigs (500˜550 g) were divided into A, B, C three groups (8 animals for each group), and pretreated with either 5 units/ml solution of neuraminidase (Sigma N2133, lyophilized powder, Type X, 150˜400 units/mg protein) in water (group B and C) or saline alone (Group A) via an aerosol for 5 minutes on day one. Then, on day one, two and three, the guinea pigs were either orally administered with 500 mg/kg of compound (1) (Group C), or water alone (Group A and B). On day four, all the animals were challenged with 0.5M citric acid solution (nebulised, 10 minutes exposure). The cough frequency, times to the 1st, 2nd and third cough, and times to the 1st nose rubs were then recorded over a period of 15 minutes.

[3] = mammals, reference [8]; cited from earlier work
[4] = system: Small Airway Epithelial Cells (SAEC); conditions: SAEC pretreated with neuraminidase, 24 h, control (treated with neuraminidase) = 100%, mean ± SEM, n = 3
[5] = system: Normal Human Bronchial/Tracheal Epithelial Cells (NHBE); conditions: NHBE pretreated with neuraminidase, 24 h, control (treated with neuraminidase) = 100%, mean ± SEM, n = 3
mucocilliary transport = conditions: reference [6]; result in words; cited from earlier work
rabbits = conditions: pre-treatment with repeated administrations (inhalations), reference [7]; cited from earlier work
[6] = guinea pigs, neuraminidase aerosol day one, 500 mg/kg oral on days one to three, 0.5M citric acid challenge day four

SMILES: CC(=O)N[C@@H]1C(O)O[C@H](CO)[C@@H](O)[C@@H]1O (stereo partly drawn) [Compound (1), N-acetyl-D-mannosamine]
- Tolerance (Balb-C mice [1]; 2 g/Kg intraperitoneal dose): well tolerated
- Tolerance (Balb-C mice [1]; 5 g/Kg oral dose): well tolerated
- Subchronic toxicity (Balb-C mice [2]; 0.5 g/Kg/day×30 days intraperitoneal dose): non-toxic
- Subchronic toxicity (Balb-C mice [2]; 1 g/Kg/day×30 days oral dose): non-toxic
- Restoration of respiratory tract damages caused by neuraminidase (male Hartley guinea pigs): could restore the respiratory tract damages caused by neuraminidase
- Restoration of respiratory tract damages caused by neuraminidase (male Hartley guinea pigs; listed as compound (1)): helped to restore the damages caused by neuraminidase
- Cough frequency (in 15 minutes) (male Hartley guinea pigs; [6]): 16 ± 2.2
- Time (second) to the 1st nose rubs (male Hartley guinea pigs; [6]): 49 ± 6.5 s
- Time (seconds) to the 1st cough (male Hartley guinea pigs; [6]): 85 ± 15 s
- Time (seconds) to the 2nd cough (male Hartley guinea pigs; [6]): 137 ± 31 s
- Time (seconds) to the 3rd cough (male Hartley guinea pigs; [6]): 220 ± 10 s
- Metabolism after oral administration [3]: rapidly metabolized into glucose

SMILES: CC(=O)NC1C(O)OC(COC(C)=O)C(OC(C)=O)C1OC(C)=O (stereo not shown) [Compound (8)]
- Cell viability ([4]; compound 0.003 μg/ml): 125% ± 8.51
- Cell viability ([4]; compound 0.05 μg/ml): 109% ± 1.16
- Cell viability ([4]; compound 0.19 μg/ml): 115% ± 3.52
- Cell viability ([4]; compound 0.77 μg/ml): 103% ± 3.21
- Cell viability ([4]; compound 3.1 μg/ml): 109% ± 2.79
- Cell viability ([4]; compound 12.5 μg/ml): 104% ± 1.95
- Cell viability ([4]; compound 50 μg/ml): 91% ± 3.36
- Cell viability ([5]; compound 0.003 μg/ml): 129% ± 1.70
- Cell viability ([5]; compound 0.012 μg/ml): 118% ± 3.19
- Cell viability ([5]; compound 0.05 μg/ml): 93% ± 1.38
- Cell viability ([5]; compound 0.19 μg/ml): 96% ± 1.21
- Cell viability ([5]; compound 0.77 μg/ml): 133% ± 2.09
- Cell viability ([5]; compound 3.1 μg/ml): 111% ± 2.44
- Cell viability ([5]; compound 12.5 μg/ml): 81% ± 0.60
- Cell viability ([5]; compound 50 μg/ml): 42% ± 1.55

SMILES: CC(=O)N[C@H]1[C@H]([C@H](O)[C@H](O)CO)OC(O)(C(=O)O)C[C@@H]1O (stereo partly shown) [N-acetylneuraminic acid]
- Protection against the impairment of the mucocilliary transport (mucocilliary transport): dose-dependently protected
- Prevention of inflammatory changes caused by long term exposure of SO2 (rabbits): remarkably prevented the inflammatory changes

SMILES: CC(=O)NC1C(O)OC(CO)C(O)C1O (stereo not shown) [Compound (9)]
- Cell viability ([4]; compound 0.19 μg/ml): 121% ± 2.42
- Cell viability ([4]; compound 0.77 μg/ml): 120% ± 3.14
- Cell viability ([4]; compound 3.1 μg/ml): 115% ± 3.17
- Cell viability ([4]; compound 12.5 μg/ml): 119% ± 3.04
- Cell viability ([4]; compound 50 μg/ml): 122% ± 3.21
- Cell viability ([4]; high concentration 78.1 μg/ml): 100% ± 2.92
- Cell viability ([4]; high concentration 312.5 μg/ml): 90% ± 3.28
- Cell viability ([4]; high concentration 1.25 mg/ml): 96% ± 3.16
- Cell viability ([4]; high concentration 5 mg/ml): 83% ± 2.85
- Cell viability ([5]; compound 0.19 μg/ml): 107% ± 3.41
- Cell viability ([5]; compound 0.77 μg/ml): 107% ± 1.26
- Cell viability ([5]; compound 3.1 μg/ml): 108% ± 3.24
- Cell viability ([5]; compound 12.5 μg/ml): 106% ± 3.49
- Cell viability ([5]; compound 50 μg/ml): 106% ± 2.52
- Cell viability ([5]; high concentration 78.1 μg/ml): 125% ± 3.23
- Cell viability ([5]; high concentration 312.5 μg/ml): 95% ± 2.85
- Cell viability ([5]; high concentration 1.25 mg/ml): 96% ± 2.42
- Cell viability ([5]; high concentration 5 mg/ml): 76% ± 2.71

SMILES: OC[C@H]1O[C@@H](O[C@H]2[C@H](O)[C@@H](O)C(O)O[C@@H]2CO)[C@H](O)[C@@H](O)[C@H]1O (stereo partly shown) [lactose, reference compound]
- Protection against the impairment of the mucocilliary transport (mucocilliary transport): not

SMILES: CC(=O)NC1C(OC(C)=O)OC(COC(C)=O)C(OC(C)=O)C1OC(C)=O (stereo not shown) [Compound (7)]
- Cell viability ([4]; compound 0.003 μg/ml): 102% ± 0.62
- Cell viability ([4]; compound 0.012 μg/ml): 105% ± 1.83
- Cell viability ([4]; compound 0.05 μg/ml): 128% ± 1.98
- Cell viability ([4]; compound 0.19 μg/ml): 105% ± 2.01
- Cell viability ([4]; compound 0.77 μg/ml): 112% ± 1.29
- Cell viability ([4]; compound 3.1 μg/ml): 103% ± 1.14
- Cell viability ([4]; compound 12.5 μg/ml): 134% ± 0.81
- Cell viability ([4]; compound 50 μg/ml): 73% ± 2.18
- Cell viability ([5]; compound 0.003 μg/ml): 85% ± 2.71
- Cell viability ([5]; compound 0.012 μg/ml): 103% ± 4.70
- Cell viability ([5]; compound 0.05 μg/ml): 104% ± 5.85
- Cell viability ([5]; compound 0.19 μg/ml): 100% ± 0.66
- Cell viability ([5]; compound 0.77 μg/ml): 99% ± 1.93
- Cell viability ([5]; compound 3.1 μg/ml): 98% ± 5.65
- Cell viability ([5]; compound 12.5 μg/ml): 117% ± 4.12
- Cell viability ([5]; compound 50 μg/ml): 54% ± 0.98

SMILES: CC(=O)N[C@H]1[C@H]([C@H](O)[C@H](O)CO)OC(O)(C(=O)[O-])C[C@@H]1O.[Na+] (stereo partly shown) [Compound (2), N-acetylneuraminic acid sodium salt]
- Tolerance (Balb-C mice [1]; 2 g/Kg intraperitoneal dose): well tolerated
- Tolerance (Balb-C mice [1]; 5 g/Kg oral dose): well tolerated
- Restoration of respiratory tract damages caused by neuraminidase (male Hartley guinea pigs; sodium salt): could restore the respiratory tract damages caused by neuraminidase
